Assay results: ChEMBL document CHEMBL1201862, “PubChem BioAssay data set” (2004)
Activity calls are given as the source filed them.

Legend:
[1] = cytotoxicity in HEK-293T NF-kB-Luc cells, dose response, cytotoxicity control for B/T-cell NF-kB inhibitor project, cell-based, uHTS hits (AID 489019); assay type: functional;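 also: IC50 reflects cytotoxicity as loss of cell viability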
[2] = target: T1, Microphthalmia-associated transcription factor (Homo sapiens, UniProt O75030); test: TRPM1 promoter luciferase signal decrease, dose response, MITF inhibitor project, cell-based, SK-MEL-5, cherry-picked, set 3 (AID 493073); assay type: functional
T1 sequence (O75030 whole entry): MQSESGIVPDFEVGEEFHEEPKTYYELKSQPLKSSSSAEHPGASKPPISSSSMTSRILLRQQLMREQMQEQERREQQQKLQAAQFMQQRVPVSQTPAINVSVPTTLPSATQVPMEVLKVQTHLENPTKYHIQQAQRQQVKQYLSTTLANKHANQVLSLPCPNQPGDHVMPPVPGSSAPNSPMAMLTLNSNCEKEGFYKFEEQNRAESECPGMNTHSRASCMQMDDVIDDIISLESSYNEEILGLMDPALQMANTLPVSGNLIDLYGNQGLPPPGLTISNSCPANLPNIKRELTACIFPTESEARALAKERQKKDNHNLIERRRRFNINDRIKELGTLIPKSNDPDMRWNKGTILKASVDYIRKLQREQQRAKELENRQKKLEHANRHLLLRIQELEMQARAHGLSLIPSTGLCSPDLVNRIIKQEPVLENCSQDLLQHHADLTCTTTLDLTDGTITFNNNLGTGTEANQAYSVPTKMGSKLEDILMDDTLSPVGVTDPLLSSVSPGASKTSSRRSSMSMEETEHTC

[3] = target: T2, Caspase-3 (Homo sapiens, UniProt P42574); assay type: functional;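 also: Dose-response selectivity test against caspase-3 for candidate inhibitors of sentrin-specific proteases (SENPs)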
T2 sequence (P42574 whole entry): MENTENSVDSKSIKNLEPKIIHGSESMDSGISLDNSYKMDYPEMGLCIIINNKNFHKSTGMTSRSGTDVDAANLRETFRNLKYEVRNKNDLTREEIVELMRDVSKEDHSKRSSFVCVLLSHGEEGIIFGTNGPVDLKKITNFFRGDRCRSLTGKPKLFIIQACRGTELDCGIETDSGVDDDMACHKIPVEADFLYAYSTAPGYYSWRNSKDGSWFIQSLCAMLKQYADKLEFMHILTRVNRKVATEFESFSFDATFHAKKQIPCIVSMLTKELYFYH

[4] = system: A-375; test: A375 melanoma cell viability reduction, dose response, counter-screen for MITF modulator project, cherry-pick samples, set 2 (AID 540335); assay type: functional, cell-based; conditions: Homo sapiens
[5] = target: T3, Leucine aminopeptidase (Plasmodium falciparum 3D7, UniProt Q8IL11); test: P. falciparum M17LAP inhibitors, primary screen, biochemical, fluorogenic H-Leu-NHMec substrate, 1536-well (AID 1619); assay type: functional
T3 sequence (Q8IL11 whole entry): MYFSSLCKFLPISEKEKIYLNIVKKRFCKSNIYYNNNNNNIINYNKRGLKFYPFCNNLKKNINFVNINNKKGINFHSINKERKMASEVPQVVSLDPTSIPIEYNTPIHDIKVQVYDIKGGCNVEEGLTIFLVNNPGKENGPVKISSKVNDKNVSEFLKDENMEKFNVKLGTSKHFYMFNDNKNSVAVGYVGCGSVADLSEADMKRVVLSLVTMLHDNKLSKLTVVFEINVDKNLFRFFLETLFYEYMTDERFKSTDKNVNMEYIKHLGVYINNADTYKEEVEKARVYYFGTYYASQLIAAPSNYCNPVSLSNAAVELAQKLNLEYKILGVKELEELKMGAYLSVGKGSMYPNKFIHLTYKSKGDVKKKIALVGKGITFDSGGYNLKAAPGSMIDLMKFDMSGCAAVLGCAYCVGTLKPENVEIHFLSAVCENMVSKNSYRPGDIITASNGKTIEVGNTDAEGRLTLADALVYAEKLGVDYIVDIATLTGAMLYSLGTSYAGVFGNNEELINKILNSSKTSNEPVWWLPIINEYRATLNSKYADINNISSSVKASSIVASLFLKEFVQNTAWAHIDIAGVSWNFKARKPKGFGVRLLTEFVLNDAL

[6] = system: Jurkat; test: antigen receptor-induced NF-kB inhibitors, dose response, Jurkat, luciferase reporter, luminescence, B- and T-cell (AID 489004); assay type: functional, cell-based; conditions: Homo sapiens;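 also: NF-kB luciferase reporter Jurkat cells stimulated with PMA plus ionomycin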
[7] = target: T4, Sentrin-specific protease 7 (Homo sapiens, UniProt Q9BQF6); test: SENP7 protease inhibitors, SAR follow-up, biochemical, luminescence (AID 504497); assay type: functional
T4 sequence (Q9BQF6 whole entry): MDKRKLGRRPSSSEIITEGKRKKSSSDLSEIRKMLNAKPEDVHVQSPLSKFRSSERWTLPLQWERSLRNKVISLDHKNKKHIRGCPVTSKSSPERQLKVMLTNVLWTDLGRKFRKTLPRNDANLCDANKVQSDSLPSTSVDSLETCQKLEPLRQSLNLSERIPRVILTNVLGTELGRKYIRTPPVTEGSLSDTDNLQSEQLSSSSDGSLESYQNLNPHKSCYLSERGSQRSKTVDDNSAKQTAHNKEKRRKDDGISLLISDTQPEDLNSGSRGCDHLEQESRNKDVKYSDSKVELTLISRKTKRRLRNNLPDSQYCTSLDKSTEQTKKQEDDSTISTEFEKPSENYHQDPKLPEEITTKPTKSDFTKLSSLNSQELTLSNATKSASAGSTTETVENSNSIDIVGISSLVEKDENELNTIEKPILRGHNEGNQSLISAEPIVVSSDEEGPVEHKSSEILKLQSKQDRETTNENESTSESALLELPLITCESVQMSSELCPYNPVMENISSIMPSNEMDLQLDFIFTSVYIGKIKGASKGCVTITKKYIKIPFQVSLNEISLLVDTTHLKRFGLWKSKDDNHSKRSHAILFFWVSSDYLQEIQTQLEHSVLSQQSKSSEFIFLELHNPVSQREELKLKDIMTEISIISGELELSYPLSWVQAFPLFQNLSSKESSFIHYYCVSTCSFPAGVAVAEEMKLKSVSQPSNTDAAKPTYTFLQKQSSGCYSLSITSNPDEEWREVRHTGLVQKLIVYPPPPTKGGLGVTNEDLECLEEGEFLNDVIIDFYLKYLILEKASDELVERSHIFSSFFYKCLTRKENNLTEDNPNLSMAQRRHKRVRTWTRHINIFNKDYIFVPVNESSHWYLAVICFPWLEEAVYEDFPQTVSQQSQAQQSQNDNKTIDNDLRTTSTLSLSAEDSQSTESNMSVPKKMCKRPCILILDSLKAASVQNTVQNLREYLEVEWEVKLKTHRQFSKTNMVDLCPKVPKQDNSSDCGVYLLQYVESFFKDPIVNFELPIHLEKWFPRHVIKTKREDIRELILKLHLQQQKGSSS

| Structure (SMILES) | IC50 [1] | AC50 [2] | IC50 [3] | AC50 [4] | IC50 [5] | IC50 [6] | IC50 [7] |
| --- | --- | --- | --- | --- | --- | --- | --- |
| N#Cc1c(NC(=O)CSc2nc[nH]n2)sc2c1CCCCC2 | > 80 µM (inactive) | 0.371 µM (active) | 45.2 µM (active) | > 35 µM (active) | < 1 µM (active) | < 0.16 µM (active) | – |
| COc1ccc(C(N)c2nccc3cc(OC)c(OC)cc23)cc1OC (configuration not stated) | – | – | – | – | – | – | > 99 µM (inactive) |
